Results on one compound are retold here after publication PMC3250956, “Functional characterization and analgesic effects of mixed cannabinoid receptor/T-type channel ligands” (Molecular Pain, 2011).

A word on the EC50: it is the concentration needed to bring the measured effect to its halfway point. A word on the Emax: it is the maximal effect, on the per cent scale that the assay sets.

One data set relates to locomotor activity. Briefly: Open-field test. Type of data set: in vivo, mice. The following applies: 1 mg/kg i.p., 30 minutes before the experiment; data not shown. An excerpt:
We then delivered NMP-7 via the intrperitoneal route.

A further data set deals with T1, Cav3.2 (Homo sapiens, UniProt O95180).
T1 construct: expressed in transfected cells; host or cells: tsA-201 cells, transient calcium phosphate transfection
T1 sequence (O95180 whole entry): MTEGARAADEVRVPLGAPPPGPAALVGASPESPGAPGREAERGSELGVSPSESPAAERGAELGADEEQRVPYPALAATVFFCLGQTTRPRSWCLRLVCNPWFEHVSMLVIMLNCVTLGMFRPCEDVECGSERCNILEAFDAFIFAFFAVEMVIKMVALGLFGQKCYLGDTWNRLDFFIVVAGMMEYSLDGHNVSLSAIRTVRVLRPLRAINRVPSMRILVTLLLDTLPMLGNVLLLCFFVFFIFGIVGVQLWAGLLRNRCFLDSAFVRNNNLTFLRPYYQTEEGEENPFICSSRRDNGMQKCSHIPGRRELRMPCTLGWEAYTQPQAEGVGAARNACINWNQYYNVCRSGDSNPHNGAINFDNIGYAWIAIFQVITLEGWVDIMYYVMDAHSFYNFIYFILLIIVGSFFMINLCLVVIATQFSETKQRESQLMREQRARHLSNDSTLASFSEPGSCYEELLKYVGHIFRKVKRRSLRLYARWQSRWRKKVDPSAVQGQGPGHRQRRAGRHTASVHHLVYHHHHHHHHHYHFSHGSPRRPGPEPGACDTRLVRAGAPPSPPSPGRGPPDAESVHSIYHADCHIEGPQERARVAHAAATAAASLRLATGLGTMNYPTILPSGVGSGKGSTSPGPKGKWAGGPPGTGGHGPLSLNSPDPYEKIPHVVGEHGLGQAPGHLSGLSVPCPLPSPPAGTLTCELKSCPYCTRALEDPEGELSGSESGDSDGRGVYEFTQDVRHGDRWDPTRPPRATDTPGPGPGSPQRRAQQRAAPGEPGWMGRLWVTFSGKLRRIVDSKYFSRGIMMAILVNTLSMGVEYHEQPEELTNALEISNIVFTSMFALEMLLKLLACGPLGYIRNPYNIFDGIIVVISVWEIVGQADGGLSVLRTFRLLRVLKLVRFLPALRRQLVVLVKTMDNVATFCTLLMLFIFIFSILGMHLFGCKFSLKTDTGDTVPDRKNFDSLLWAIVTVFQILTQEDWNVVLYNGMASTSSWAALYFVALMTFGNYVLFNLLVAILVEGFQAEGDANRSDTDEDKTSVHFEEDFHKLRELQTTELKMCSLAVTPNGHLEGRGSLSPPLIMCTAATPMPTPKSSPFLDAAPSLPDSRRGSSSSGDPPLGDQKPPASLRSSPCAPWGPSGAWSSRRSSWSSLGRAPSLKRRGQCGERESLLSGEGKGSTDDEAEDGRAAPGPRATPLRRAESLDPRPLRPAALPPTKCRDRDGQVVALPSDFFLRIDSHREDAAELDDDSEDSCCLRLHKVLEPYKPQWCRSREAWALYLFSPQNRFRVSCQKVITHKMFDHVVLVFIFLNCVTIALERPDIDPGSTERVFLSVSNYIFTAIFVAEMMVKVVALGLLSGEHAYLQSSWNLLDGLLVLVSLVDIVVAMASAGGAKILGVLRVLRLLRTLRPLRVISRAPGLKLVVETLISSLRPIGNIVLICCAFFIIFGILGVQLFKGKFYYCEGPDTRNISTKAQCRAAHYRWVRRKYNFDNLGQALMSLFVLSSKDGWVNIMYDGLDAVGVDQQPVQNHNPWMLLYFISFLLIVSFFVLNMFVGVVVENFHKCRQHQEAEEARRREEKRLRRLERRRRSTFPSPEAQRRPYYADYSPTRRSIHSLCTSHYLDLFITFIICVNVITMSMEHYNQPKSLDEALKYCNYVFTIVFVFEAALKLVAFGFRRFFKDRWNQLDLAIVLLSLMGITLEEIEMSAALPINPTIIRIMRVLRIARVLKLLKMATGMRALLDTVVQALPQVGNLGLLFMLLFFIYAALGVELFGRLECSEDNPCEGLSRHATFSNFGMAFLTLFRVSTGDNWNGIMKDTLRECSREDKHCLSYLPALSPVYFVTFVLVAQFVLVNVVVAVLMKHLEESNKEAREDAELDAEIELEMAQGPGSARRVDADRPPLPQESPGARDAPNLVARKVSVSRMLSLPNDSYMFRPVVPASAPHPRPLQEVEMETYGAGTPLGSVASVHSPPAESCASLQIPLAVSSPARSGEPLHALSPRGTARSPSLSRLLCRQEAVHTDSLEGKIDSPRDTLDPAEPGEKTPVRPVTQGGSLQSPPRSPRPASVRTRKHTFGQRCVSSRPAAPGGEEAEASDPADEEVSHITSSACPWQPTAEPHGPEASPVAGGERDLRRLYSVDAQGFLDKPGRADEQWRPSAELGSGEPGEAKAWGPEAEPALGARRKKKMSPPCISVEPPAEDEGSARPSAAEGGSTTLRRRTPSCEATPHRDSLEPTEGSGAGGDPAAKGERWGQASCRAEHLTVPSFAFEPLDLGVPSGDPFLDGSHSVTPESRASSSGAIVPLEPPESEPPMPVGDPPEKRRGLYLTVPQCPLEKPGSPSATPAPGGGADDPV
The experiment in a line: Whole-cell patch-clamp on Cav3.2: concentration-response and steady-state inactivation. Type of data set: cell-based. The following applies: 10 μM. The protocol:
To further characterize compounds NMP-4, NMP-7 and NMP-144, we investigated the concentration dependence of their action on Cav3.2, the major T-type calcium channel subtype implicated in the afferent pain pathway (Figure 2B, C).
To determine whether these compounds also affected inactivated channels, we recorded steady-state inactivation curves prior and after application of NMP-4, NMP-7 or NMP-144.
Whole-cell currents were recorded from tsa-201 cells 2-4 days after transfection. The external recording solution contained (in mM): BaCl2 (20), MgCl2 (1), HEPES (10), TEA-Cl (40), CsCl (65), d-glucose (10) and pH 7.2 adjusted with TEA-OH. The internal pipette solution was composed of (in mM) Cs-methanesulfonate (108), MgCl2 (4), EGTA (9), HEPES (9) and pH 7.2 adjusted with CsOH. The internal solution was supplemented with 0.6 mM GTP (sodium salt) and 2 mM ATP (tris salt), which were added directly to the internal solution immediately prior to use. Pipettes with a resistance of 2~5 MΩ when filled with internal solution were used for recording. Currents were elicited from a holding potential of -100 mV and were measured by conventional whole-cell patch clamp using an Axopatch 200B amplifier in combination with Clampex 9.2 software (Axon Instruments, Foster City, CA). Data were filtered at 1 kHz (8-pole Bessel) and digitized at 10 kHz with a Digidata 1320 (Axon Instruments, Foster City, CA). Series resistance were compensated by 85% in all experiments. An online P/4 programme was used to subtract the leak currents. Drugs were dissolved in DMSO at the following stock concentrations: 20 mM for NMP-4 and NMP-7, and 10 mM for NMP-139, NMP-140, NMP-141 and NMP-144. Prior to the experiment, drugs were diluted into external recording solution with a final DMSO concentration no higher than 0.3%. DMSO was also included in the control solution. Drug delivery was controlled by a Valvelink8.2 fast perfusion system (Automate Scientific Inc., Berkeley, CA). The perfusion tip was positioned a few hundred microns from the cell and kept as constant as possible throughout the experiments. Electrophysiological data were analyzed using Clampfit 9.2 (Axon Instruments, Foster City, CA) and GraphPad Prism 5 software (GraphPad Software Inc., San Diego, CA). […] Steady-state inactivation curves were fitted using the Boltzmann equation: I = 1/(1 + e ^(V-Vh)/k), where Vh is the half inactivating potential and k is the slope factor.
(The patch-clamp technique gives a direct electrical read-out from membranes.)

Another data set has as its system formalin-induced pain. Briefly: Formalin test (formalin-induced nociception). Type of data set: in vivo, mice. The protocol:
All experiments were conducted following the protocol approved by the Institutional Animal Care and Use Committee (protocol #M09130) and all efforts were made to minimize animal suffering. Male mice of C57BL/6J strain weighing 25~30 g, 10 weeks old were used. Animals were housed at a maximum number of five per cage (30 × 20 × 15 cm) with food and water ad libitum. They were kept in 12 h light/dark cycles (lights on at 7:00 a.m.) at a temperature of 23 ± 1°C. All manipulations were carried out between 11:00 am and 3:00 pm. […] Control animals received the same vehicle used to dilute the compounds. When drugs were delivered by intraperitoneal (i.p.) route, a constant volume of 10 ml/kg body weight was injected. When drugs were administered by intrathecal (i.t.) or intraplantar (i.pl.) routes, respectively volumes of 5 μl or 20 μl were injected. Appropriate vehicle-treated groups were also assessed simultaneously.
The formalin test is a widely used model that allows us to evaluate two different types of pain: neurogenic pain (phase 1) is caused by direct activation of nociceptive nerve terminals, while inflammatory pain (phase 2) is mediated by a combination of peripheral input and spinal cord sensitization. Animals received 20 μl of a formalin solution (1.25%) made up in PBS injected intraplantarly (i.pl.) in the ventral surface of the right hindpaw. Following i.pl. injection of formalin, the animals were immediately placed individually into observation chambers and the time spent licking or biting the injected paw was be recorded and considered as nociceptive response. We observed animals individually from 0-5 min (neurogenic phase) and 15-30 min (inflammatory phase).
Intrathecal injections were given to fully conscious mice using the method previously described by Hylden and Wilcox. Briefly, the animals were manually restrained, and a 30-gauge needle connected by a polyethylene tube to a 25 μl Hamilton syringe (Hamilton, Birmingham, UK) was inserted through the skin and between the vertebrae into the […] space of the L5-L6 spinal segments. Intrathecal injections were given over a period of 5 seconds.

Another data set concerns the target Human CB2 (Homo sapiens, UniProt P34972). The experiment in a line: GTPγ[35S] functional assay, CHO cell membrane extracts. Type of data set: biochemical. Also on record: expressed in transfected cells; host or cells: CHO cells (membrane extracts).
For a further data set, the target named is Human CB1 (Homo sapiens, UniProt P21554). The description is as above. Details: Emax: dose or concentration left out as unconfirmed.
Sequence of Human CB1 (P21554 whole entry): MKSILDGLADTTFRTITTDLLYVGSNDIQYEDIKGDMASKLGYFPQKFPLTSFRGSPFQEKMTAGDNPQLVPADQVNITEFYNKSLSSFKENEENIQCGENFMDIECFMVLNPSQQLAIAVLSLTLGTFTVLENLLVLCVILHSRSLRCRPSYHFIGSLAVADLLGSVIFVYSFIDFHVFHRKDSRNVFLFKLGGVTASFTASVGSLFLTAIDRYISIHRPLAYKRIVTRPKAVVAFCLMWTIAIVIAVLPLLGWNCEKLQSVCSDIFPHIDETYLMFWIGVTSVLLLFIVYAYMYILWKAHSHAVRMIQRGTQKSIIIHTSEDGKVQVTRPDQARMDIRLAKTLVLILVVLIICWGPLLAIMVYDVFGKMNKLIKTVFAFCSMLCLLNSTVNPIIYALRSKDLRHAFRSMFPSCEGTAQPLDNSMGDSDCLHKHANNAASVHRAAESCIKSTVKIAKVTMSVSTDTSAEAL
[1] abbreviates: 1 mg/kg i.p., 30 min before behavioural assessment.
[2] abbreviates: i.t., 10 min prior, NMP-4 1-10 μg/i.t., NMP-144 0.1-1 μg/i.t., NMP-7 3-30 μg/i.t., mice.

Sequence of Human CB2 (P34972 whole entry): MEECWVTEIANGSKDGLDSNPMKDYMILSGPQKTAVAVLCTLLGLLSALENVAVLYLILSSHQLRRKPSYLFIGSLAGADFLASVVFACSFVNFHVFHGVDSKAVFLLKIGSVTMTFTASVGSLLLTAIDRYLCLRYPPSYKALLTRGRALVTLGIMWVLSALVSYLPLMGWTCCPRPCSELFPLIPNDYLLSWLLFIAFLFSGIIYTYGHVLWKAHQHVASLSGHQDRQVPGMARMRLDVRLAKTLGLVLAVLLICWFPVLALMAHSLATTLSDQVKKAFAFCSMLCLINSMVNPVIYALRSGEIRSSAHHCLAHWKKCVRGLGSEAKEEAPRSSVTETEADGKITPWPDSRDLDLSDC
Procedure for Human CB1: Functional activity was evaluated using GTPγ[^35S] assay in CHO cell membrane extracts expressing recombinant human CB1 or CB2 receptors as we previously described [51]. Compounds were solubilized in 100% DMSO at a concentration of 10 mM within 4 hours of the first testing session. A predilution for the dose response curve was performed in 100% DMSO and then diluted 100 fold in assay buffer at a concentration 2 fold higher than the concentration to be tested. […] Membranes were mixed with GDP diluted in assay buffer to give 30 μM solution (volume:volume) and incubated for at least 15 min on ice. In parallel, GTPγ[^35S] (GE Healthcare, Catalogue number SJ1308) were mixed with the beads (PVT-WGA (GE Healthcare, RPNQ001)), diluted in assay buffer at 50 mg/ml (0.5 mg/10 μl) (volume:volume) just before starting the reaction. The following reagents were successively added in the wells of an Optiplate (Perkin Elmer): 50 μl of ligand, 20 μl of the membranes:GDP mix, 10 μl of assay buffer for agonist testing, and 20 μl of the GTPγ[^35S]:beads mix. The plates were covered with a topseal, shacked on an orbital shaker for 2 min, and then incubated for 1 hour at room temperature. Then the plates were centrifuged for 10 min at 2000 rpm and counted for 1 min/well with a PerkinElmer TopCount reader. […] For replicate determinations, the maximum variability tolerated in the test was of ± 20% around the average of the replicates.

For the compound `CCCCCn1c2ccccc2c2cc(C(=O)N3CCCCC3)ccc21` [NMP-7], in the data set on locomotor activity, the “locomotor activity in the open-field test” value is recorded as “did not alter locomotor activity”. The “hyperpolarizing shift in the half inactivation potential of Cav3.2 channels” value on Cav3.2 is given as 13 mV. In addition, on Cav3.2 (n = 4), the “half-inactivation potential after treatment with drug” value is -63.3 ± 3.5 mV. Besides, in the data set with formalin-induced pain (setting [1]), the “inhibition of the pain responses in phase 1” value turned out to be 92 ± 7% and the “inhibition of the pain responses in phase 2” value came to 94 ± 6%. Moreover, the “effect on first phase of formalin-induced nociception” value in the data set with formalin-induced pain (i.pl., co-injected with formalin, NMP-4 and NMP-144 0.03-3 μg/paw, NMP-7 0.3-3 μg/i.pl.) was “able to inhibit the first phase”. In the data set with formalin-induced pain (setting [2]), the “reduction of pain response time, first (neurogenic) phase” value is given as “significant inhibition” and the “reduction of pain response time, second (inflammatory) phase” value was “significant inhibition”. On Human CB2, this compound yielded an EC50 of 10.5 ± 1.8 nM. For the same compound, the maximal response (Emax) on Human CB2 (read-out: GTPγ[35S] functional assays Human CB2 Emax) is 30.8%. The response at Human CB1 was half-maximal at 96.9 ± 11.9 nM (EC50). Moreover, at Human CB1 (read-out: GTPγ[35S] functional assays Human CB1 Emax), the maximal effect (Emax) stood at 73.6%.
